Key:
Settings in all cases: treatment: drug alone; 5 days
A498 [1] = assay: GI50, drug alone; higher = less potent
Method: (§1)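 Primary HTS: 8 RCC cell lines treated with 8 doses (up to 10 uM) of each library drug alone for 5 days; viability read by CellTiter-Glo and normalised to DMSO. GI50 was fitted with XLfit (4-parameter), AUC is the area under the dose-response curve, and minimum viability is the lowest fraction of DMSO viability across doses.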

786-O [2] = assay: GI50, drug alone; higher = less potent
Method: as §1

TK-10 [3] = assay: GI50, drug alone; higher = less potent
Method: as §1

UO-31 [4] = assay: GI50, drug alone; higher = less potent
Method: as §1

ACHN [5] = assay: GI50, drug alone; higher = less potent
Method: as §1

769-P [6] = assay: GI50, drug alone; higher = less potent
Method: as §1

CAKI-1 [7] = assay: GI50, drug alone; higher = less potent
Method: as §1

SN12C [8] = assay: GI50, drug alone; higher = less potent
Method: as §1

A498 [9] = assay: AUC of dose-response viability curve, drug alone (arbitrary (AUC of normalised viability)); higher = less growth inhibition
Method: as §1

786-O [10] = assay: as above
Method: as §1

TK-10 [11] = assay: as above
Method: as §1

UO-31 [12] = assay: as above
Method: as §1

ACHN [13] = assay: as above
Method: as §1

769-P [14] = assay: as above
Method: as §1

CAKI-1 [15] = assay: as above
Method: as §1

SN12C [16] = assay: as above
Method: as §1

A498 [17] = assay: minimum viability across doses, drug alone, relative to DMSO (fraction); higher = less growth inhibition
Method: as §1

786-O [18] = assay: as above
Method: as §1

TK-10 [19] = assay: as above
Method: as §1

UO-31 [20] = assay: as above
Method: as §1

ACHN [21] = assay: as above
Method: as §1

769-P [22] = assay: as above
Method: as §1

CAKI-1 [23] = assay: as above
Method: as §1

SN12C [24] = assay: as above
Method: as §1

Row | SMILES | GI50, drug alone (786-O [2]) [µM] | GI50, drug alone (ACHN [5]) [µM] | GI50, drug alone (A498 [1]) [µM] | GI50, drug alone (TK-10 [3]) [µM] | GI50, drug alone (UO-31 [4]) [µM] | GI50, drug alone (769-P [6]) [µM] | GI50, drug alone (CAKI-1 [7]) [µM] | GI50, drug alone (SN12C [8]) [µM] | AUC of dose-response viability curve (A498 [9]) | AUC of dose-response viability curve (786-O [10]) | AUC of dose-response viability curve (TK-10 [11]) | AUC of dose-response viability curve (UO-31 [12]) | AUC of dose-response viability curve (ACHN [13]) | AUC of dose-response viability curve (769-P [14]) | AUC of dose-response viability curve (CAKI-1 [15]) | AUC of dose-response viability curve (SN12C [16]) | minimum viability across doses (A498 [17]) | minimum viability across doses (786-O [18]) | minimum viability across doses (TK-10 [19]) | minimum viability across doses (UO-31 [20]) | minimum viability across doses (ACHN [21]) | minimum viability across doses (769-P [22]) | minimum viability across doses (CAKI-1 [23]) | minimum viability across doses (SN12C [24])
1 | NC(=O)c1ccc(-c2nc(-c3ccc4c(c3)OCO4)c(-c3ccccn3)[nH]2)cc1 | > 10 | > 10 | > 10 | > 10 | > 10 | > 10 | > 10 | > 10 | 3.96 | 2.72 | 2.89 | 4.85 | 3.21 | 3.26 | 3.3 | 2.86 | 0.906 | 0.578 | 0.613 | 0.941 | 0.564 | 0.838 | 0.723 | 0.556
2 | CC(C)n1nc(-c2ccc3oc(N)nc3c2)c2c(N)ncnc21 [INK 128] | 0.00665 | 0.0152 | 0.071 | 0.012 | 0.0252 | 0.0504 | 0.0344 | 0.039 | 1.63 | 0.69 | 0.931 | 0.778 | 0.901 | 1.34 | 1.12 | 1.27 | 0.104 | 0.00552 | 0.0249 | 0.00678 | 0.0484 | 0.0864 | 0.0368 | 0.0865
3 | OCCn1cc(-c2cnc3nnn(Cc4ccc5ncccc5c4)c3n2)cn1 | > 10 | > 10 | > 10 | > 10 | > 10 | > 10 | > 10 | > 10 | 4.04 | 4 | 3.18 | 4.37 | 2.48 | 3.3 | 2.32 | 3.37 | 0.984 | 1.01 | 0.804 | 1.15 | 0.542 | 0.883 | 0.615 | 0.879
4 | CCc1cc2c(cc1N1CCC(N3CCOCC3)CC1)C(C)(C)c1[nH]c3cc(C#N)ccc3c1C2=O | > 10 | 5.47 | > 10 | > 10 | > 10 | > 10 | 5.02 | > 10 | 5.08 | 3 | 2.93 | 6.33 | 3 | 3.67 | 2.98 | 3.28 | 1.06 | 0.655 | 0.612 | 1.02 | 0.366 | 0.922 | 0.428 | 0.801
5 | N#CC[C@H](C1CCCC1)n1cc(-c2ncnc3[nH]ccc23)cn1 | 8.76 | > 10 | > 10 | > 10 | > 10 | > 10 | > 10 | > 10 | 4.75 | 3.06 | 3.2 | 4.92 | 3.14 | 3.4 | 3.82 | 3.53 | 1.24 | 0.433 | 0.833 | 1.25 | 0.779 | 0.876 | 0.965 | 0.945
6 | O=C1Nc2ccccc2/C1=C1/Nc2ccccc2C1=O [Indirubin] | > 10 | > 10 | > 10 | > 10 | > 10 | > 10 | > 10 | > 10 | 3.26 | 2.32 | 2.6 | 2.68 | 2.9 | 3.19 | 2.94 | 2.66 | 0.827 | 0.529 | 0.635 | 0.655 | 0.778 | 0.811 | 0.762 | 0.703

More lines, main results first:

Row | GI50, drug alone (786-O [2]) [µM] | GI50, drug alone (ACHN [5]) [µM] | SMILES | GI50, drug alone (A498 [1]) [µM] | GI50, drug alone (TK-10 [3]) [µM] | GI50, drug alone (UO-31 [4]) [µM] | GI50, drug alone (769-P [6]) [µM] | GI50, drug alone (CAKI-1 [7]) [µM] | GI50, drug alone (SN12C [8]) [µM] | AUC of dose-response viability curve (A498 [9]) | AUC of dose-response viability curve (786-O [10]) | AUC of dose-response viability curve (TK-10 [11]) | AUC of dose-response viability curve (UO-31 [12]) | AUC of dose-response viability curve (ACHN [13]) | AUC of dose-response viability curve (769-P [14]) | AUC of dose-response viability curve (CAKI-1 [15]) | AUC of dose-response viability curve (SN12C [16]) | minimum viability across doses (A498 [17]) | minimum viability across doses (786-O [18]) | minimum viability across doses (TK-10 [19]) | minimum viability across doses (UO-31 [20]) | minimum viability across doses (ACHN [21]) | minimum viability across doses (769-P [22]) | minimum viability across doses (CAKI-1 [23]) | minimum viability across doses (SN12C [24])
7 | 5.37 | 8.48 | FC(F)(F)c1ccc(Nc2nc3cc(Oc4ccnc(-c5ncc(C(F)(F)F)[nH]5)c4)ccc3[nH]2)cc1 [Raf265 derivative] | > 10 | > 10 | 1.05 | 9.97 | 9.39 | > 10 | 4.16 | 2.69 | 3.18 | 3.5 | 3.47 | 3.24 | 3.62 | 3.32 | 1.04 | 0.141 | 0.534 | 0.0014 | 0.142 | 0.473 | 0.298 | 0.651
8 | 0.61 | 0.74 | C=CCc1cccc(/C=N/NC(=O)CN2CCN(Cc3ccccc3)CC2)c1O [PAC-1] | 8.78 | 1.62 | 1.7 | 2.32 | 3.23 | 3.35 | 3.43 | 2.18 | 2.69 | 3.29 | 2.23 | 2.94 | 3.2 | 3.01 | 0.368 | 0.00713 | 0.0835 | 0.0166 | 0.0162 | 0.0295 | 0.117 | 0.138
9 | 4.97 | 7.52 | CC[C@H](CO)Nc1nc(NCc2ccccc2)c2ncn(C(C)C)c2n1 [Roscovitine (Seliciclib, CYC202)] | > 10 | > 10 | > 10 | > 10 | > 10 | > 10 | 3.91 | 2.76 | 3.17 | 3.47 | 3.25 | 3.28 | 3.27 | 3.57 | 1.03 | 0.208 | 0.655 | 0.544 | 0.36 | 0.848 | 0.763 | 0.769
